Measurements published in ChEMBL document CHEMBL1201862, “PubChem BioAssay data set” (2004).
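Five compound concentrations were applied to cells in 96-well plates for 48 hours; endpoints were derived by simple linear interpolation of the resulting dose-response curve. GI50 is the concentration that inhibits growth by half.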 Activity calls are given as the source filed them. No stated cut-off is given here; in the data, active = GI50 up to about 1.1 µM and inactive = higher.

What was measured:
Experiment in all cases: growth of human tumour cells (NCI), 48 h
A549 = test system: A549
UACC-257 = test system: UACC-257
TK-10 = test system: TK-10
ACHN = test system: ACHN
HOP-62 = test system: HOP-62
SF-295 = test system: SF-295
786-0 = test system: 786-0
HCT-116 = test system: HCT-116
SR = test system: SR
MOLT-4 = test system: MOLT-4
K562 = test system: K562
NCI-H522 = test system: NCI-H522
HCC 2998 = test system: HCC 2998
HCT-15 = test system: HCT-15
CAKI-1 = test system: CAKI-1
OVCAR-8 = test system: OVCAR-8
A498 = test system: A498
NCI-H226 = test system: NCI-H226

| SMILES | GI50 (A549) | GI50 (UACC-257) | GI50 (TK-10) | GI50 (ACHN) | GI50 (HOP-62) | GI50 (SF-295) | GI50 (786-0) | GI50 (HCT-116) | GI50 (SR) | GI50 (MOLT-4) | GI50 (K562) | GI50 (NCI-H522) | GI50 (HCC 2998) | GI50 (HCT-15) [µM] | GI50 (CAKI-1) | GI50 (OVCAR-8) | GI50 (A498) | GI50 (NCI-H226) |
| --- | --- | --- | --- | --- | --- | --- | --- | --- | --- | --- | --- | --- | --- | --- | --- | --- | --- | --- |
| CCCCCCCCCCCCCCCc1nnc(SCC(=O)O)[nH]1 | 79.1 µM (inactive) | > 100 µM (inactive) | 13.2 µM (inactive) | 47.3 µM (inactive) | > 100 µM (inactive) | 40 µM (inactive) | 18.5 µM (inactive) | 92.7 µM (inactive) | 60 µM (inactive) | 11.7 µM (inactive) | 16.4 µM (inactive) | 41.6 µM (inactive) | 43.9 µM (inactive) | 31.6 | 63.2 µM (inactive) | 40.8 µM (inactive) |  |  |
| Cc1cc2c3c(coc3c1-c1c(C)cc3c4c(coc14)C(=O)C(O)=C3C(C)C)C(=O)C(O)=C2C(C)C | 4.05 µM (inactive) | 14.3 µM (inactive) | 14.5 µM (inactive) | 3.51 µM (inactive) | 11.5 µM (inactive) | 5.37 µM (inactive) | 10.1 µM (inactive) | 3.54 µM (inactive) |  | 3.66 µM (inactive) | 3.26 µM (inactive) | 5.92 µM (inactive) | 3.68 µM (inactive) | 3.94 | 12.8 µM (inactive) | 4.72 µM (inactive) | 12.2 µM (inactive) | 10.1 µM (inactive) |
| COc1cc2c(cc1O)C=NCC2 | > 100 µM (inactive) | > 100 µM (inactive) | > 100 µM (inactive) | > 100 µM (inactive) |  | > 100 µM (inactive) | > 100 µM (inactive) | > 100 µM (inactive) |  | 60.5 µM (inactive) | > 100 µM (inactive) | > 100 µM (inactive) |  | > 100 | > 100 µM (inactive) | > 100 µM (inactive) | 94.2 µM (inactive) | > 100 µM (inactive) |
| O=C(c1cccs1)N(C(=S)N1CCN(c2ccccn2)CC1)C1CCCCC1 | 43.7 µM (inactive) | 50.9 µM (inactive) | > 100 µM (inactive) | 69.2 µM (inactive) | > 100 µM (inactive) | > 100 µM (inactive) | > 100 µM (inactive) | 49.3 µM (inactive) | 36.6 µM (inactive) | 33 µM (inactive) | 47 µM (inactive) | 66.2 µM (inactive) |  | 78 | 76.2 µM (inactive) | > 100 µM (inactive) |  | 19.5 µM (inactive) |
| CC1(C)C(=O)C(C)(C)C1=NN | > 100 µM (inactive) | > 100 µM (inactive) | > 100 µM (inactive) | > 100 µM (inactive) | > 100 µM (inactive) | > 100 µM (inactive) | > 100 µM (inactive) | > 100 µM (inactive) | > 100 µM (inactive) | > 100 µM (inactive) | > 100 µM (inactive) | > 100 µM (inactive) | > 100 µM (inactive) | > 100 | > 100 µM (inactive) | > 100 µM (inactive) |  | > 100 µM (inactive) |
| Cc1cc(C=O)c2c(=O)c3c(O)ccc(/C=C/C(C)C)c3oc2c1 | > 100 µM (inactive) | > 100 µM (inactive) | > 100 µM (inactive) | 46.3 µM (inactive) | > 100 µM (inactive) | > 100 µM (inactive) | 39.8 µM (inactive) | 20.9 µM (inactive) | 26.7 µM (inactive) | 28.9 µM (inactive) | 39.8 µM (inactive) | 28.7 µM (inactive) | > 100 µM (inactive) | 30.5 | 64.7 µM (inactive) | 65.2 µM (inactive) |  | > 100 µM (inactive) |
| CCCCc1c2c(nc3c1CC/C(=C\c1ccccc1)C3=O)CCCC2 | 12.3 µM (inactive) | 5.78 µM (inactive) | 9.33 µM (inactive) | 12.1 µM (inactive) | 4.62 µM (inactive) | 4.47 µM (inactive) | 2.33 µM (inactive) | 4.9 µM (inactive) | 3.54 µM (inactive) | 3.33 µM (inactive) | 4.07 µM (inactive) | 2.15 µM (inactive) | 3.52 µM (inactive) | 3.3 |  | 1.98 µM (inactive) |  | > 10 µM (inactive) |
| CC1=C(C(=O)Nc2cc(F)c(F)cc2F)C(c2cccc([N+](=O)[O-])c2)C(C(=O)Nc2ccccc2C(F)(F)F)=C(C)N1 (stereo not given) | 26.8 µM (inactive) | 23.4 µM (inactive) | 31.8 µM (inactive) | 21.1 µM (inactive) | 22.4 µM (inactive) | 23.4 µM (inactive) | 17.3 µM (inactive) |  |  | 12.5 µM (inactive) | 14.4 µM (inactive) | 13.8 µM (inactive) | 20 µM (inactive) |  | 15.8 µM (inactive) | 27 µM (inactive) | 11.2 µM (inactive) | 21.3 µM (inactive) |
| COC(=O)Cc1c([C@@]2(C)CCCC(C)(C)C2)ccc2c1C(=O)OC2 | 9.84 µM (inactive) | 5.66 µM (inactive) | 17.9 µM (inactive) | 11.7 µM (inactive) |  | 10.3 µM (inactive) | 15.7 µM (inactive) | 5.64 µM (inactive) |  | 3.92 µM (inactive) | 4.02 µM (inactive) | 5.04 µM (inactive) |  | 6.44 | > 10 µM (inactive) | 15.3 µM (inactive) | 25.5 µM (inactive) | 11.2 µM (inactive) |
| CCOP1(=O)C=CC(Cl)=C(C)C1 (stereo not given) | 31.1 µM (inactive) | 15.5 µM (inactive) | 19.5 µM (inactive) | 8.63 µM (inactive) | 27.2 µM (inactive) | 35.2 µM (inactive) | 15.6 µM (inactive) | 5.58 µM (inactive) |  | 3.64 µM (inactive) | 5.06 µM (inactive) | 4.04 µM (inactive) | 15.9 µM (inactive) | 13.7 | 10.5 µM (inactive) | 19.6 µM (inactive) | 29.2 µM (inactive) | > 100 µM (inactive) |
| COc1ccc(C[C@]23CCC(=O)N2CCc2cc(OC)c(O)cc23)cc1O | > 100 µM (inactive) | > 100 µM (inactive) | > 100 µM (inactive) | > 100 µM (inactive) | > 100 µM (inactive) | > 100 µM (inactive) | > 100 µM (inactive) | > 100 µM (inactive) |  | > 100 µM (inactive) | > 100 µM (inactive) |  | > 100 µM (inactive) | > 100 | > 100 µM (inactive) | 30 µM (inactive) | > 100 µM (inactive) | > 100 µM (inactive) |
| COc1ccc(CNc2cc(OC)cc(OC)c2)cc1 | 60.8 µM (inactive) | 64 µM (inactive) |  | > 69.3 µM (inactive) | > 61.5 µM (inactive) |  | > 37.6 µM (inactive) | 52.4 µM (inactive) |  | > 42.9 µM (inactive) | 29.8 µM (inactive) | 23.1 µM (inactive) | > 87.1 µM (inactive) |  |  | > 82 µM (inactive) |  | 61.1 µM (inactive) |
| NC1=NN(c2ccccc2)C(=O)C1/C(=N\NC(=O)c1cc2ccccc2cc1O)C(=O)Nc1cccc(C(F)(F)F)c1 (stereo not given) | 37.2 µM (inactive) | 26.4 µM (inactive) | > 100 µM (inactive) | 30.1 µM (inactive) | 39.4 µM (inactive) | 49.1 µM (inactive) | 38.1 µM (inactive) | 25.4 µM (inactive) |  | 16.3 µM (inactive) |  |  | 46.2 µM (inactive) |  |  | 24.1 µM (inactive) |  |  |
